Measured values reported in patent US10722501B2 (BAYER AKTIENGESELLSCHAFT, priority 2016, dated 2020).

Biological target: T1, recombinant full-length human prolyl endopeptidase (PREP) (Homo sapiens, UniProt P48147)
T1 construct: To recombinant full-length human prolyl endopeptidase (PREP, R&D-Systems, 4308-SE); purchased R&D-Systems 4308-SE
T1 sequence (P48147 1-710): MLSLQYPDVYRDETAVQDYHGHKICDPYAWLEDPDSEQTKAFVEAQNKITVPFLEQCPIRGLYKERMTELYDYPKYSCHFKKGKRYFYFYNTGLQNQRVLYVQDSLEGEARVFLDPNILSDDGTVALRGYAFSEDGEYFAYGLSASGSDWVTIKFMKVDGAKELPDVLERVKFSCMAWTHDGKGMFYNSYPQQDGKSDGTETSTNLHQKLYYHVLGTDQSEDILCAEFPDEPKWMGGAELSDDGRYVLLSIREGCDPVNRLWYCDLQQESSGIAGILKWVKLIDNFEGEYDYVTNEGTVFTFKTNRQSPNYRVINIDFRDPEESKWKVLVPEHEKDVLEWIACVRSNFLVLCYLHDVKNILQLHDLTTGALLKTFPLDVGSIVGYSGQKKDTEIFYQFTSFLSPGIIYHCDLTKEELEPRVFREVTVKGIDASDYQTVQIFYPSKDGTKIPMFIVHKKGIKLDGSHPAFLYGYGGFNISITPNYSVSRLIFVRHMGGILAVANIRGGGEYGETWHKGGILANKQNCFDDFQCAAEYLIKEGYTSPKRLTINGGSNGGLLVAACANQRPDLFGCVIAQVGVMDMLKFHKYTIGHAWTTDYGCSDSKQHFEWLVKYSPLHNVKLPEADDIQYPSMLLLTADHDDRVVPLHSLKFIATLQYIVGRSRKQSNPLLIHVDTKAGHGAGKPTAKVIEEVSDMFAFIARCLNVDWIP
Assay: Biochemical human prolyl endopeptidase (PREP) assay with fluorescently labelled substrate
Settings: substrate Z-Gly-Pro-AMC 50 μM, 32° C., 60 min; some as mean values from multiple independent determinations
Procedure, shortened: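 Initial rates of fluorescence increase from 50 μM Z-Gly-Pro-AMC cleavage (ex 360/em 465 nm, 60 min, 32° C) give percent PREP activity versus no-compound control, and IC50 is interpolated. Enzyme used at 0.4 nM (final, example) in Tris pH 7.5 with EDTA, GSH, BSA and Brij-35; compounds span 1 nM to 30 μM.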

Compound | IC50
O=C(C1C(C(F)(F)F)CCc2nn(Cc3ncc(Cl)cc3Cl)c(=O)n21)N1CC(F)C1 (racemic) [Example 306, (5RS,6RS)-2-[(3,5-Dichloropyridin-2-yl)methyl]-5-[(3-fluoroazetidin-1-yl)carbonyl]-6-(trifluoromethyl)-5,6,7,8-tetrahydro[1,2,4]triazolo[4,3-a]pyridin-3(2H)-one] | 215 nM
O=C(C1CCc2nn(Cc3ccc(F)c(Cl)c3)c(=O)n21)N1CC[C@H](F)C1 (mixture of isomers) [Example 165, (5RS)-2-(3-Chloro-4-fluorobenzyl)-5-{[(3S)-3-fluoropyrrolidin-1-yl]carbonyl}-2,5,6,7-tetrahydro-3H-pyrrolo[2,1-c][1,2,4]triazol-3-one] | 0.89 nM
CC1CCC(C(=O)N2C[C@@H](F)[C@@H](F)C2)n2c1nn(Cc1ccc(F)cc1F)c2=O (mixture of isomers) [Example 324, (5RS,8RS)-2-(2,4-Difluorobenzyl)-5-{[(3R,4S)-3,4-difluoropyrrolidin-1-yl]carbonyl}-8-methyl-5,6,7,8-tetrahydro[1,2,4]triazolo[4,3-a]pyridin-3(2H)-one] | 1.2 nM
O=C(C1CC(C(F)(F)F)Cc2nn(Cc3ccc(Cl)nc3)c(=O)n21)N1CCCC1 (single isomer, unassigned) [Example 229, (5RS,7RS)-2-[(6-Chloropyridin-3-yl)methyl]-5-(pyrrolidin-1-ylcarbonyl)-7-(trifluoromethyl)-5,6,7,8-tetrahydro[1,2,4]triazolo[4,3-a]pyridin-3(2H)-one] | 0.34 nM
O=C([C@@H]1CCCc2nn(Cc3csc(C(F)(F)F)n3)c(=O)n21)N1C[C@@H](F)[C@@H](F)C1 [Example 366, (5S)-5-{[(3R,4S)-3,4-Difluoropyrrolidin-1-yl]carbonyl}-2-{[2-(trifluoromethyl)-1,3-thiazol-4-yl]methyl}-5,6,7,8-tetrahydro[1,2,4]triazolo[4,3-a]pyridin-3(2H)-one] | 2.1 nM
NS(=O)(=O)c1ccc(Cn2nc3n(c2=O)C(C(=O)N2CCCC2)CCC3)cc1 (racemic) [Example 29, 4-{[(5RS)-3-Oxo-5-(pyrrolidin-1-ylcarbonyl)-5,6,7,8-tetrahydro[1,2,4]triazolo[4,3-a]pyridin-2(3H)-yl]methyl}benzenesulphonamide] | 1.2 nM
Cc1ccc(Cn2nc3n(c2=O)[C@H](C(=O)N2C[C@@H](O)[C@H](F)C2)CCC3)cc1 [Example 183, (5S)-5-{[(3R,4R)-3-Fluoro-4-hydroxypyrrolidin-1-yl]carbonyl}-2-(4-methylbenzyl)-5,6,7,8-tetrahydro[1,2,4]triazolo[4,3-a]pyridin-3(2H)-one] | 109 nM
O=C(C1C(C(F)(F)F)CCc2nn(Cc3ncc(Cl)cc3Cl)c(=O)n21)N1CCC(F)(F)C1 (racemic) [Example 289, (5RS,6RS)-2-[(3,5-Dichloropyridin-2-yl)methyl]-5-[(3,3-difluoropyrrolidin-1-yl)carbonyl]-6-(trifluoromethyl)-5,6,7,8-tetrahydro[1,2,4]triazolo[4,3-a]pyridin-3(2H)-one] | 117 nM
O=C(C1C(C(F)(F)F)CCc2nn(Cc3ccc(C(F)(F)F)nc3)c(=O)n21)N1CC[C@H](F)C1 (mixture of isomers) [Example 284, (5RS,6RS)-5-{[(3S)-3-Fluoropyrrolidin-1-yl]carbonyl}-6-(trifluoromethyl)-2-{[6-(trifluoromethyl)pyridin-3-yl]methyl}-5,6,7,8-tetrahydro[1,2,4]triazolo[4,3-a]pyridin-3(2H)-one] | 3 nM
CSc1ccc(Cn2nc3n(c2=O)C(C(=O)N2CCCC2)CCC3)cc1 (racemic) [Example 30, (5RS)-2-[4-(Methylsulphanyl)benzyl]-5-(pyrrolidin-1-ylcarbonyl)-5,6,7,8-tetrahydro[1,2,4]triazolo[4,3-a]pyridin-3(2H)-one] | 1.6 nM
O=C(C1CCCc2nn(Cc3ccc(Cl)s3)c(=O)n21)N1CCCC1 (racemic) [Example 53, (5RS)-2-[(5-Chloro-2-thienyl)methyl]-5-(pyrrolidin-1-ylcarbonyl)-5,6,7,8-tetrahydro[1,2,4]triazolo[4,3-a]pyridin-3(2H)-one] | 0.71 nM
O=C(C1CCCc2nn(Cc3ccc(F)c(F)c3)c(=O)n21)N1CCCC1 (racemic) [Example 17, (5RS)-2-(3,4-Difluorobenzyl)-5-(pyrrolidin-1-ylcarbonyl)-5,6,7,8-tetrahydro[1,2,4]triazolo[4,3-a]pyridin-3(2H)-one] | 1.2 nM
O=C(C1C(C(F)(F)F)CCc2nn(Cc3ccc(C(F)(F)F)nc3)c(=O)n21)N1CC(F)C1 (single isomer, unassigned) [Example 305, (5RS,6RS)-5-[(3-Fluoroazetidin-1-yl)carbonyl]-6-(trifluoromethyl)-2-{[6-(trifluoromethyl)pyridin-3-yl]methyl}-5,6,7,8-tetrahydro[1,2,4]triazolo[4,3-a]pyridin-3(2H)-one] | 14 nM
O=C([C@@H]1CCC(O)c2nn(Cc3ccc(C(F)(F)F)nc3)c(=O)n21)N1CC[C@H](F)C1 (mixture of isomers) [Example 275, (5S,8RS)-5-{[(3S)-3-Fluoropyrrolidin-1-yl]carbonyl}-8-hydroxy-2-{[6-(trifluoromethyl)pyridin-3-yl]methyl}-5,6,7,8-tetrahydro[1,2,4]triazolo[4,3-a]pyridin-3(2H)-one] | 1.15 nM
O=C([C@@H]1CCCc2nn(CCc3ccc(F)cc3)c(=O)n21)N1CC(F)(F)C1 [Example 345, (5S)-5-[(3,3-Difluoroazetidin-1-yl)carbonyl]-2-[2-(4-fluorophenyl)ethyl]-5,6,7,8-tetrahydro[1,2,4]triazolo[4,3-a]pyridin-3(2H)-one] | 6.4 nM

The next lines start with the values.

IC50 | Compound
0.78 nM | O=C([C@@H]1CCCc2nn(Cc3ccc(F)cc3Cl)c(=O)n21)N1CC(F)C1 [Example 476, (5S)-2-(2-Chloro-4-fluorobenzyl)-5-[(3-fluoroazetidin-1-yl)carbonyl]-5,6,7,8-tetrahydro[1,2,4]triazolo[4,3-a]pyridin-3(2H)-one]
0.17 nM | O=C([C@@H]1CCCc2nn(Cc3ccc(C(F)(F)F)c(Cl)c3)c(=O)n21)N1CCC(F)(F)C1 [Example 460, (5S)-2-[3-Chloro-4-(trifluoromethyl)benzyl]-5-[(3,3-difluoropyrrolidin-1-yl)carbonyl]-5,6,7,8-tetrahydro[1,2,4]triazolo[4,3-a]pyridin-3(2H)-one]
0.245 nM | O=C([C@@H]1CCCc2nn(Cc3ccc(C(F)(F)F)c(F)c3)c(=O)n21)N1C[C@@H](F)[C@@H](F)C1 [Example 472, (5S)-5-{[(3R,4S)-3,4-Difluoropyrrolidin-1-yl]carbonyl}-2-[3-fluoro-4-(trifluoromethyl)benzyl]-5,6,7,8-tetrahydro[1,2,4]triazolo[4,3-a]pyridin-3(2H)-one]
3.1 nM | COc1ccc(Cn2nc3n(c2=O)[C@H](C(=O)N2CC(F)C2)CCC3)cn1 [Example 433, (5S)-5-[(3-Fluoroazetidin-1-yl)carbonyl]-2-[(6-methoxypyridin-3-yl)methyl]-5,6,7,8-tetrahydro[1,2,4]triazolo[4,3-a]pyridin-3(2H)-one]
1.4 nM | O=C([C@@H]1CCCc2nn(CCc3ccc(F)cc3)c(=O)n21)N1CCC(F)(F)C1 [Example 519, (5S)-5-[(3,3-Difluoropyrrolidin-1-yl)carbonyl]-2-[2-(4-fluorophenyl)ethyl]-5,6,7,8-tetrahydro[1,2,4]triazolo[4,3-a]pyridin-3(2H)-one]
1.3 nM | O=C([C@@H]1CCCc2nn(Cc3ccc(F)cc3)c(=O)n21)N1C[C@@H](F)[C@@H](F)C1 [Example 452, (5S)-5-{[(3R,4S)-3,4-Difluoropyrrolidin-1-yl]carbonyl}-2-(4-fluorobenzyl)-5,6,7,8-tetrahydro[1,2,4]triazolo[4,3-a]pyridin-3(2H)-one]
0.375 nM | COc1ccc(Cn2nc3n(c2=O)[C@H](C(=O)N2C[C@@H](F)[C@@H](F)C2)CCC3)cc1 [Example 453, (5S)-5-{[(3R,4S)-3,4-Difluoropyrrolidin-1-yl]carbonyl}-2-(4-methoxybenzyl)-5,6,7,8-tetrahydro[1,2,4]triazolo[4,3-a]pyridin-3(2H)-one]
2.1 nM | O=C([C@@H]1CCCc2nn(Cc3ccc(Cl)c(F)c3)c(=O)n21)N1CC(F)(F)C1 [Example 465, (5S)-2-(4-Chloro-3-fluorobenzyl)-5-[(3,3-difluoroazetidin-1-yl)carbonyl]-5,6,7,8-tetrahydro[1,2,4]triazolo[4,3-a]pyridin-3(2H)-one]
2.24 nM | O=C([C@@H]1CCCc2nn(Cc3cc4cccnc4nc3C(F)(F)F)c(=O)n21)N1CCC(F)(F)C1 [Example 418, (5S)-5-[(3,3-Difluoropyrrolidin-1-yl)carbonyl]-2-{[2-(trifluoromethyl)-1,8-naphthyridin-3-yl]methyl}-5,6,7,8-tetrahydro[1,2,4]triazolo[4,3-a]pyridin-3(2H)-one]
